According to patent US20240307819A1, “ELECTROCHEMICAL TARGET SPECIES CAPTURE WITH A REDOX-ACTIVE AMINE” (Massachusetts Institute of Technology, priority 2021, published 2024):

Columns and labels:
[1] = Electrochemical release of CO2 by constant-current oxidation in an H-cell (electron utilization); design: key to stable electron utilization: moles CO2 released per mole of electrons transferred; conditions: for εCO2 (electron utilization during CO2 release): moles of CO2 released per moles of electrons, 0.1-0.2 M amine, constant current 50 mA
Protocol: FIGS. 5A-5F are related to electrochemical release of CO2. FIG. 5A is a schematic of the experimental setup for CO2 release. […] The amount of released CO2 (curve A) and electron utilization (curve B) are shown versus electric charge.
A bench-scale setup using an electrochemical H-cell was constructed and tested for the capture and release of CO2 (FIG. 5A). The system was equipped with an anion exchange membrane separating two 5 mL reaction chambers, carbon felt as a working electrode, and a stainless steel wire electrode for an arbitrary reaction in the counter chamber. […] Then, pure CO2 was bubbled into the solution for 10 min to complete the saturation of the electrochemically generated 1-Apyl radical dimer 3 solution. […] The electron utilization (εCO2) during CO2 release on oxidation represents the ratio between the moles of CO2 released and the moles of electrons transferred (equation 1): […]

[2] = CO2 absorption by electrochemically reduced amine solutions; conditions: for CO2 capacity (absorption capacity): 1 mL aqueous 0.1-0.2 M amine, reduced, 15% CO2 inlet gas
Protocol: FIGS. 6A-6D are related to CO2 absorption dynamics in 1-APyl radical 2 solutions. […] 0.2 M 1-APyl radical 2 solution in 1 mL of water was contacted with the gas at a flow rate of 3.3 mL/min at room temperature. […] 1 mL of 0.04 M 1-APyl radical 2 solution was contacted with the gas at a flow rate of 3.3 mL/min at room temperature. […] A flow of 15% CO2 concentration balanced by nitrogen was used.
The changes in flow rate and concentration of CO2 were monitored by a CO2 flow meter and an FT-IR CO2 sensor, respectively.

[3] = Cyclic voltammetry of the redox-active amines; conditions: for Potential gap / Ep^oxi vs Ag/AgCl / Ep^red vs Ag/AgCl: Table 1; for Potential gap: gap between Ep^oxi and Ep^red; for Ep^oxi vs Ag/AgCl / Ep^red vs Ag/AgCl: techniques of Example 1
Protocol: Potentials were recorded versus Ag/AgCl as a reference electrode.
Cyclic voltammetry (CV) was conducted to probe the mechanism of this process as depicted in FIG. 4E.
Each of structures 1-20 were assessed for electrochemical capture and release of carbon dioxide in accordance with the techniques described above in Example 1. Absorption capacities for carbon dioxide are reported in units of moles of CO2 per mole of amine. […] For the release experiments, 3.5 mL solutions of amine and captured carbon dioxide at concentrations ranging from 0.1-0.2 M of amine were electrochemically oxidized at a constant current of 50 mA while released CO2 was measured as a function of charge passed.

[4] = Aqueous solubility; type: physicochemical; conditions: Table 1, aqueous solution
[5] = Direct capture of CO2 from ambient air, then electrochemical oxidation; conditions: 0.2 M, 3.5 mL, bubbled with air 18 h at ca. 100 mL/min
Protocol: (§1) FIGS. 8A-8C are related to direct air capture and stability test of 1-APyl radical 2 solution. […] 0.1, 0.2, and 0.4 M 1-APyl radical 2 aqueous solutions (1 mL) were bubbled with air at a flow rate of 3.3 mL/min at room temperature. […] The 1-APyl radical 2 solutions (0.2 M, 5 mL) were bubbled with dioxygen for 1 and 30 days (curve shading matching the shading of the labels in the figure) at a flow rate of 10 mL/min followed by contact with pure CO2 for an additional 12 min. The 1-APyl radical 2 solutions were sealed under nitrogen for 1 and 30 days followed by contact with pure CO2 for 12 min for the control experiments.
We next sought to expand the use of the 1-AP nitrate redox cycle to the direct capture of CO2 from ambient air (FIGS. 8A-8C). The 1-APyl radical dimer 3 solution (3.5 mL) was prepared by first reducing a 0.2 M 1-AP nitrate (1) solution, and then bubbling the solution with non-pretreated air for 18 h at a flow rate of ca. 100 mL/min (FIG. 8A). Electrochemical oxidation of the air-bubbled solution was carried out to evaluate the direct air capture efficiency. The system presented electron utilization during CO2 release of up to 0.78 with 36% cell capacity usage with the 0.2 M solution. […] Initial CO2 absorption rates from the ambient air were measured in 0.1, 0.2, and 0.4 M solutions of 1-APyl radical 2 (FIG. 8B). […]

[6] = Cyclic stability of electrochemical CO2 capture and release over 5 cycles
Protocol: FIGS. 7A-7D are related to cyclic stability of the electrochemical CO2 capture and release by 1-AP nitrate (1) redox system for 5 cycles.
The reversible capture and release of CO2 was tested over five cycles to evaluate the robustness of the 1-AP nitrate redox cycle (FIG. 7A-7D). The cyclic stability was evaluated with a 0.8 mmol amine solution and restricted to operate at 80% of the full capacity of the cell in order to minimize undesired side reactions. The gas output and CO2 fraction were monitored to show reproducible and stable capture and release of CO2 during five cycles under the applied current conditions. The gas release rate was steady at 0.75 mL/min, consistent with the release of one mole of CO2 per mole electrons transferred under steady current flow in each cycle.

[7] = in water; cited from earlier work
[8] = Stability test of 1-APyl radical solution (oxygen sensitivity and nitrogen controls); type: physicochemical; conditions: 0.2 M, 5 mL
Protocol: as §1
To test the stability of the 1-APyl radical in air, a set of experiments was carried out (FIG. 8C). Exposure to pure dioxygen (10 mL/min) of the 1-APyl radical 2 solution (0.2 M, 5 mL) for 1 and 30 days (see corresponding curve in FIG. 8C) followed by saturation with pure CO2 provided 6.6% and 46% decrease, respectively, of the capacity of the system compared to the output for the freshly CO2-saturated solution (see corresponding curve in FIG. 8C). […] Although further studies for the stability under the various conditions are warranted, operation in the presence of oxygen remains feasible.

[9] = 20 mM in water, 0.1 M potassium nitrate, nitrogen, platinum working electrode, 20 mV/s, room temperature

Compound	Potential gap [3] [V]	Ep^oxi vs Ag/AgCl [3] [V]	Ep^red vs Ag/AgCl [3] [V]	εCO2 (electron utilization during CO2 release) ([1]; 3.5 mL)	CO2 capacity (absorption capacity) ([2]; 3.3 mL/min)	also measured
CNc1cc[n+](N)cc1.O=[N+]([O-])[O-] [Entry 12]	1.34	0.87	−0.47	0.91	1.6 moles of CO2 per mole of amine	–
Nc1cc[n+](N)cc1 [Entry 5]	1.44	1.02	−0.48	0.99	2.3 moles of CO2 per mole of amine	–
N[n+]1ccccc1 [1-AP nitrate, 1-aminopyridinium]	–	–	–	–	–	stable electron utilization ([1]; 1 M 1-AP nitrate solution, 3.5 mL, 100 mA): 1.25; capacity of the electrochemical CO2 release process ([1]; per g of 1-AP nitrate): 12.4 mmol/g; electron utilization ([1]; solution prepared from 0.2 M 1-AP nitrate, 3.5 mL, 50 mA): up to 1.08; cell capacity usage, direct air capture [5]: 36%; electron utilization during CO2 release, direct air capture ([5]; 50 mA): up to 0.78; gas release rate ([6]; 0.2 M, 0.8 mmol in 4 mL water, 50 mA, 80% of full capacity, each of 5 cycles): 0.75 mL/min; robustness over cycles ([6]; 5 cycles): no significant loss in performance; oxidative peak potential [3, 9]: −0.32 V vs. Ag/AgCl; reductive peak potential [3, 9]: −0.45 V vs. Ag/AgCl
N[n+]1c2ccccc2nc2ccccc21 [Entry 20, amino-phenazinium]	–	–	–	–	–	solubility ([4]; read-out: Low solubility (Observations)): < 10 mM
O=C(O)O [carbonic acid]	–	–	–	–	–	pKa [7]: approximately 6.8
COc1ccc[n+](N)c1.[O-][Cl+3]([O-])([O-])[O-] [Entry 14]	1.30	0.84	−0.44	0.41	–	–
Cc1cc(C)c[n+](N)c1.[O-][Cl+3]([O-])([O-])[O-] [Entry 18]	1.96	1.52	−0.44	–	–	–
1-aminopyridinyl (1-APyl) radical [1-APyl radical 2]	–	–	–	–	–	CO2 absorption rate compared with EDA and MEA ([2]; 0.2 M in 1 mL water, 15% CO2 balanced by nitrogen): comparable; constant CO2 capacity ([2]; 1, 4, 15 and 100% CO2 inlet gas streams, 3.3 mL/min, room temperature): 1.94 mole of CO2 per mole of amine; decrease of the capacity of the system ([8]; bubbled with nitrogen 10 mL/min, 30 days): 54%; decrease of the capacity of the system ([8]; pure dioxygen 10 mL/min, 1 day, vs freshly CO2-saturated solution): 6.6%; decrease of the capacity of the system ([8]; pure dioxygen 10 mL/min, 30 days): 46%; decrease of the capacity of the system ([8]; sealed under nitrogen, 1 day): 7.2%; decrease of the capacity of the system ([8]; sealed under nitrogen, 30 days): 22%; stability in water (from quasi-reversible CV wave) ([3]; water, room temperature): stable in water at room temperature
NC(=O)c1cc[n+](N)cc1.O=[N+]([O-])[O-] [Entry 7]	1.37	0.88	−0.49	0.69	1.1 moles of CO2 per mole of amine	–
N#Cc1cc[n+](N)cc1.O=[N+]([O-])[O-] [Entry 8]	1.43	0.88	−0.55	0.70	1.65 moles of CO2 per mole of amine	–
COC(=O)c1cc[n+](N)cc1.F[B-](F)(F)F [Entry 1]	–	–	−0.34	–	–	–

Further lines, with some results ahead:

Potential gap [3] [V]	Ep^oxi vs Ag/AgCl [3] [V]	Ep^red vs Ag/AgCl [3] [V]	Compound	εCO2 (electron utilization during CO2 release) ([1]; 3.5 mL)	CO2 capacity (absorption capacity) ([2]; 3.3 mL/min)	also measured
1.31	0.83	−0.48	CC(C)(C)c1cc[n+](N)cc1.[O-][Cl+3]([O-])([O-])[O-] [Entry 3]	0.52	–	Low solubility (Observations) [4]: (<0.2M)
1.47	1.04	−0.43	Cc1cccc(C)[n+]1N.[O-][Cl+3]([O-])([O-])[O-] [Entry 17]	–	–	–
1.28	0.85	−0.43	CN(C)c1cc[n+](N)cc1 [Entry 6]	0.99	2.0 moles of CO2 per mole of amine	–
2.46	1.73	−0.73	COc1cccc[n+]1N.O=[N+]([O-])[O-] [Entry 16]	0.76	1.05 moles of CO2 per mole of amine	–
1.75	1.05	−0.70	COc1cc[n+](N)cc1.[O-][Cl+3]([O-])([O-])[O-] [Entry 4]	0.70	–	Low solubility (Observations) [4]: (<0.2M)
1.73	1.03	−0.70	Nc1ccc[n+](N)c1 [Entry 15]	0.72	1.1 moles of CO2 per mole of amine	–
1.41	0.85	−0.56	N[n+]1ccc(O)cc1 [Entry 9]	0.32	0.95 moles of CO2 per mole of amine	–
1.47	1.00	−0.47	Cc1ccc[n+](N)c1.[O-][Cl+3]([O-])([O-])[O-] [Entry 13]	0.83	–	–
